Data from PubChem BioAssay AID248 (DTP/NCI, 2004).
Several values for one entry are separate records, joined by “and”; a condition that tells them apart may be missing. Equal entries are not always repeated. Toxic doses and inconclusive results are not listed. Rule as the data show it: active = T/C of 150% or more; inactive = T/C below 125%.

Tested on: L1210 leukemia ip in BDF1 mice, survival T/C
Assay: NCI In Vivo Anticancer Drug Screen. Data for tumor model L1210 Leukemia (intraperitoneal) in B6D2F1 (BDF1) mice
Settings: endpoint: mean survival time, higher = longer survival
Outline: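 Survival endpoint. Drug-treated group vs vehicle group, expressed as T divided by C. Tumor passaged by transplantation.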

[1] = dose: 100.0 mg/kg/injection, schedule: Q04DX002 (ip), vehicle: Klucel (hydroxypropylcellulose) (HPC)
[2] = dose: 200.0 mg/kg/injection, schedule: Q04DX002 (ip), vehicle: Klucel (hydroxypropylcellulose) (HPC)
[3] = dose: 400.0 mg/kg/injection, schedule: Q04DX002 (ip), vehicle: Klucel (hydroxypropylcellulose) (HPC)
[4] = dose: 100.0 mg/kg/injection, schedule: Q04DX003 (ip), vehicle: saline with Tween-80
[5] = dose: 200.0 mg/kg/injection, schedule: Q04DX003 (ip), vehicle: saline with Tween-80
[6] = dose: 100.0 mg/kg/injection, schedule: Q04DX003 (ip), vehicle: Klucel (hydroxypropylcellulose) (HPC)
[7] = dose: 200.0 mg/kg/injection, schedule: Q04DX003 (ip), vehicle: Klucel (hydroxypropylcellulose) (HPC)
[8] = dose: 400.0 mg/kg/injection, schedule: Q04DX003 (ip), vehicle: Klucel (hydroxypropylcellulose) (HPC)
[9] = dose: 75.0 mg/kg/injection, schedule: Q01DX001 (ip), vehicle: other
[10] = dose: 150.0 mg/kg/injection, schedule: Q01DX001 (ip), vehicle: other
[11] = dose: 100.0 mg/kg/injection, schedule: Q01DX009 (ip), vehicle: Klucel (hydroxypropylcellulose) (HPC)
[12] = dose: 200.0 mg/kg/injection, schedule: Q01DX009 (ip), vehicle: Klucel (hydroxypropylcellulose) (HPC)
[13] = dose: 400.0 mg/kg/injection, schedule: Q04DX002 (ip), vehicle: saline with Tween-80
[14] = dose: 400.0 mg/kg/injection, schedule: Q01DX009 (ip), vehicle: Klucel (hydroxypropylcellulose) (HPC)
[15] = dose: 25.0 mg/kg/injection, schedule: Q01DX009 (ip), vehicle: saline
[16] = dose: 25.0 mg/kg/injection, schedule: Q04DX003 (ip), vehicle: saline
[17] = dose: 50.0 mg/kg/injection, schedule: Q01DX009 (ip), vehicle: saline
[18] = dose: 50.0 mg/kg/injection, schedule: Q04DX003 (ip), vehicle: saline
[19] = dose: 100.0 mg/kg/injection, schedule: Q01DX001 (ip), vehicle: saline with Tween-80
[20] = dose: 200.0 mg/kg/injection, schedule: Q01DX001 (ip), vehicle: saline with Tween-80
[21] = dose: 400.0 mg/kg/injection, schedule: Q01DX001 (ip), vehicle: saline with Tween-80

Measured: T/C

CCCCCCCCCCCCCCCCCCNC(=S)OC
inactive: [1] 91 % of control | [2] 97 % of control | [3] 102 % of control

N#CC(SC(=N)N)c1ccccc1 (configuration not stated)
inactive: dose: 100.0 mg/kg/injection, schedule: Q01DX001 (ip), vehicle: saline 103 % of control | dose: 200.0 mg/kg/injection, schedule: Q01DX001 (ip), vehicle: saline 96 % of control

COc1ccc(-n2c(C)csc2=S)cc1
inactive: [4] 94 % of control | [5] 97 % of control

Cc1ccc(NC(=O)c2cc3ccccc3cc2O)c(C)c1
inactive: dose: 100.0 mg/kg/injection, schedule: Q01DX001 (ip), vehicle: other 92 % of control | [6] 100 % of control | dose: 200.0 mg/kg/injection, schedule: Q01DX001 (ip), vehicle: other 92 % of control | [7] 94 % of control | dose: 400.0 mg/kg/injection, schedule: Q01DX001 (ip), vehicle: other 92 % of control | [8] 105 % of control

CCOC(=O)C(C#N)C(=N)C1CC(C)(C)OC1=O (configuration not stated)
inactive: [9] 101 % of control | [10] 106 % of control

c1ccc(C(c2ccccc2)[Si](c2ccccc2)(c2ccccc2)C(c2ccccc2)c2ccccc2)cc1
inactive: dose: 25.6 mg/kg/injection, schedule: Q04DX002 (ip), vehicle: saline with Tween-80 107 % of control | dose: 50.0 mg/kg/injection, schedule: Q01DX009 (ip), vehicle: Klucel (hydroxypropylcellulose) (HPC) 90 % of control | dose: 64.0 mg/kg/injection, schedule: Q04DX002 (ip), vehicle: saline with Tween-80 100 % of control | [11] 86 % of control | [4] 94 % of control | dose: 160.0 mg/kg/injection, schedule: Q04DX002 (ip), vehicle: saline with Tween-80 100 % of control | [12] 88 % of control | [5] 96 % of control | [13] 110 % of control | dose: 400.0 mg/kg/injection, schedule: Q04DX003 (ip), vehicle: saline with Tween-80 91 % of control

Clc1ccccc1C(c1cccc2ccccc12)n1ccnc1 (configuration not stated)
inactive: dose: 25.0 mg/kg/injection, schedule: Q04DX002 (ip), vehicle: Klucel (hydroxypropylcellulose) (HPC) 92 % of control | dose: 50.0 mg/kg/injection, schedule: Q04DX002 (ip), vehicle: Klucel (hydroxypropylcellulose) (HPC) 100 % of control | [1] 100 % of control | [12] 93 % of control | [14] 86 % of control

CN1CCC=C(C(=O)N2c3ccccc3Sc3ccccc32)C1
inactive: [15] 88 % of control | [16] 97 % of control | [17] 96 % of control | [18] 96 % of control | dose: 100.0 mg/kg/injection, schedule: Q01DX009 (ip), vehicle: saline 102 % of control | dose: 100.0 mg/kg/injection, schedule: Q04DX003 (ip), vehicle: saline 96 % of control and 105 % of control

COc1ccc(C=NC(C)(C)CO)cc1OC
inactive: dose: 100.0 mg/kg/injection, schedule: Q01DX001 (ip), vehicle: steriod suspending solution 108 % of control | dose: 200.0 mg/kg/injection, schedule: Q01DX001 (ip), vehicle: steriod suspending solution 103 % of control | dose: 400.0 mg/kg/injection, schedule: Q01DX001 (ip), vehicle: steriod suspending solution 101 % of control

CCCCCCCCCCCCN=c1nc(N)ccn1C1OC(CO)C(O)C1O (configuration not stated)
inactive: dose: 12.5 mg/kg/injection, schedule: Q01DX005 (ip), vehicle: saline 110 % of control | dose: 25.0 mg/kg/injection, schedule: Q01DX005 (ip), vehicle: saline 116 % of control

c1ccc(C2SCc3ccc(cc3)Sc3ccc(cc3)CS2)cc1
inactive: [19] 91 % of control | [20] 88 % of control | [21] 91 % of control

C=CCC(CCCCCCCCCCCCC)C(=O)O (configuration not stated)
inactive: [19] 96 % of control | [20] 105 % of control | [21] 101 % of control

S=C=NCCc1ccccc1
inactive: dose: 12.5 mg/kg/injection, schedule: Q01DX009 (ip), vehicle: saline with Tween-80 101 % of control | dose: 25.0 mg/kg/injection, schedule: Q01DX009 (ip), vehicle: saline with Tween-80 104 % of control | dose: 50.0 mg/kg/injection, schedule: Q01DX009 (ip), vehicle: saline with Tween-80 108 % of control | dose: 100.0 mg/kg/injection, schedule: Q01DX009 (ip), vehicle: saline with Tween-80 87 % of control

N=c1nc(N)nc2c3ccccc3nnn12
inactive: [9] 105 % of control | [10] 106 % of control

NC1(c2ccccc2)CCCCC1
inactive: dose: 3.12 mg/kg/injection, schedule: Q01DX009 (ip), vehicle: saline 110 % of control | dose: 6.25 mg/kg/injection, schedule: Q01DX009 (ip), vehicle: saline 104 % of control | dose: 12.5 mg/kg/injection, schedule: Q01DX009 (ip), vehicle: saline 105 % of control | [15] 103 % of control | [16] 98 % of control | [17] 105 % of control | [18] 101 % of control

CCCCC(CC)COC(=O)/C=C/C(=O)OCC(CC)CCCC (configuration not stated)
inactive: [11] 96 % of control | [6] 101 % of control | [12] 107 % of control | [7] 95 % of control | [14] 107 % of control | [8] 93 % of control

NC(=O)C1(Nc2ccc(-c3ccc(Cl)cc3)cc2)CCCC1
inactive: dose: 50.0 mg/kg/injection, schedule: Q01DX001 (ip), vehicle: carboxymethylcellulose (CMC) 96 % of control | dose: 100.0 mg/kg/injection, schedule: Q01DX001 (ip), vehicle: carboxymethylcellulose (CMC) 93 % of control | dose: 200.0 mg/kg/injection, schedule: Q01DX001 (ip), vehicle: carboxymethylcellulose (CMC) 90 % of control | dose: 400.0 mg/kg/injection, schedule: Q01DX001 (ip), vehicle: carboxymethylcellulose (CMC) 87 % of control

CN(C)C(=S)Oc1c([N+](=O)[O-])cc([N+](=O)[O-])cc1C(C)(C)C
inactive: dose: 25.0 mg/kg/injection, schedule: Q04DX002 (ip), vehicle: saline with Tween-80 86 % of control | dose: 50.0 mg/kg/injection, schedule: Q04DX002 (ip), vehicle: saline with Tween-80 86 % of control

COc1ccc(C(O)c2cnc(C)n2Cc2ccccc2)cc1 (configuration not stated)
inactive: dose: 100.0 mg/kg/injection, schedule: Q01DX001 (ip), vehicle: Klucel (hydroxypropylcellulose) (HPC) 93 % of control | [11] 101 % of control and 105 % of control | [1] 94 % of control and 98 % of control and 106 % of control | [6] 93 % of control | dose: 200.0 mg/kg/injection, schedule: Q01DX001 (ip), vehicle: Klucel (hydroxypropylcellulose) (HPC) 102 % of control | [12] 100 % of control and 101 % of control | [2] 92 % of control and 95 % of control and 88 % of control | [7] 93 % of control | dose: 400.0 mg/kg/injection, schedule: Q01DX001 (ip), vehicle: Klucel (hydroxypropylcellulose) (HPC) 97 % of control | [14] 96 % of control and 90 % of control | [3] 95 % of control and 98 % of control and 91 % of control | [8] 95 % of control

CC1CC(C)OC2(CCCc3ccccc32)O1 (configuration not stated)
inactive: dose: 100.0 mg/kg/injection, schedule: Q04DX002 (ip), vehicle: saline with Tween-80 104 % of control | dose: 200.0 mg/kg/injection, schedule: Q04DX002 (ip), vehicle: saline with Tween-80 100 % of control | [13] 104 % of control
